Data as given in patent US7678778B2 (priority 2004, dated 2010).

Tested on: B16 Melanoma
Conditions: in vivo

Row | Structure (SMILES) | T-C
1 | O=P1(N(CCCl)CCCl)NCCCO1 (centres unmarked) [Cyclophosphamide, cyclophosphamide] | 27 days
2 | O=P1(NCCCl)OCCCN1CCCl (centres unmarked) [Ifosfamide] | 18 days
